From US8859549B2, “Potassium channel modulators” (AbbVie, Inc., priority 2011, dated 2014)

Biological target: T1, KCNQ 2/3 channels (Homo sapiens, UniProt O43525+O43526)
T1 construct: expressed in transfected cells; host or cells: HEK293
Experiment: KCNQ 2/3 channel activation, thallium flux FLIPR assay (BTC-AM dye)
Assay type: cell-based
Settings: for Emax: HEK293, maximum response relative to the response of 10 μM retigabine (set at 100%), HEK293 KCNQ2/KCNQ3 cells, read-out: % MAX; for EC50: HEK293 cells stably expressing human KCNQ2 and KCNQ3 subunits, thallium-induced fluorescence, 4 min compound incubation
Procedure, shortened: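 HEK293 cells stably expressing human KCNQ2/KCNQ3 were loaded with BTC-AM (3 μg/mL, 2 h, RT) and preincubated with compound for 4 min in pH 7.3 gluconate buffer containing 0.1 mM ouabain. Flux was triggered by 6 mM TlNO3/10 mM K2SO4 and read for 3 min; EC50 came from summed responses over basal, with maximum relative to 10 μM retigabine (100%).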

SMILES | Emax [%] | EC50 [nM]
O=C(CC(F)(F)F)Nn1nc(N2CCOCC2)c2ccccc2c1=O [Example 136, 3,3,3-trifluoro-N-[4-(morpholin-4-yl)-1-oxophthalazin-2(1H)-yl]propanamide] | 49.1 | 6230
O=C(CC1CC2CCC1C2)Nn1nc(-c2ccnc(Cl)c2)c2ccccc2c1=O (racemic) [Example 29, (±)-2-[(exo)-bicyclo[2.2.1]hept-2-yl]-N-[4-(2-chloropyridin-4-yl)-1-oxophthalazin-2(1H)-yl]acetamide] | 137 | 67.1
O=C(Cc1ccc(Cl)cc1)Nn1nc(N2CCOCC2)c2ccccc2c1=O [Example 2, 2-(4-chlorophenyl)-N-[4-(morpholin-4-yl)-1-oxophthalazin-2(1H)-yl]acetamide] | 117 | 2700
O=C(Cc1ccc(Cl)cc1)Nn1nc(-c2cccs2)c2ccccc2c1=O [Example 11, 2-(4-chlorophenyl)-N-[1-oxo-4-(thiophen-2-yl)phthalazin-2(1H)-yl]acetamide] | 105 | 297
CC1CN(c2nn(NC(=O)Cc3ccc(Cl)cc3)c(=O)c3ccccc23)CC(C)O1 (stereo not drawn) [Example 62, 2-(4-chlorophenyl)-N-[4-(2,6-dimethylmorpholin-4-yl)-1-oxophthalazin-2(1H)-yl]acetamide] | 85.8 | 369
CCOC(=O)NCc1nn(NC(=O)Cc2ccc(Cl)cc2)c(=O)c2ccccc12 [Example 85, ethyl[(3-{[(4-chlorophenyl)acetyl]amino}-4-oxo-3,4-dihydrophthalazin-1-yl)methyl]carbamate] | 87.3 | 5350
CC(C)(C)OC(=O)N1CCN(C(=O)c2nn(NC(=O)CC3CC4CCC3C4)c(=O)c3ccccc23)CC1 (racemic) [Example 98, (±)-tert-butyl 4-[(3-{[(exo)-bicyclo[2.2.1]hept-2-ylacetyl]amino}-4-oxo-3,4-dihydrophthalazin-1-yl)carbonyl]piperazine-1-carboxylate] | 140 | 4970
O=C(Cc1cc(F)cc(F)c1)Nn1nc([S+]([O-])c2ccccc2)c2ccccc2c1=O (stereo not drawn) [Example 83, 2-(3,5-difluorophenyl)-N-[1-oxo-4-(phenylsulfinyl)phthalazin-2(1H)-yl]acetamide] | 105 | 1100
CC(C)(C)NC(=O)NCc1nn(NC(=O)Cc2ccc(Cl)cc2)c(=O)c2ccccc12 [Example 84, N-[4-{[(tert-butylcarbamoyl)amino]methyl}-1-oxophthalazin-2(1H)-yl]-2-(4-chlorophenyl)acetamide] | 40.8 | 
O=C(Cc1cc(F)cc(F)c1)Nn1nc(Cc2ccc(Cl)nc2)c2ccccc2c1=O [Example 31, N-{4-[(6-chloropyridin-3-yl)methyl]-1-oxophthalazin-2(1H)-yl}-2-(3,5-difluorophenyl)acetamide] | 72.1 | 330
CN(C)c1ccc(-c2nn(NC(=O)CC3CC4CCC3C4)c(=O)c3ccccc23)cn1 (racemic) [Example 47, (±)-2-[(exo)-bicyclo[2.2.1]hept-2-yl]-N-{4-[6-(dimethylamino)pyridin-3-yl]-1-oxophthalazin-2(1H)-yl}acetamide] | 122 | 378
O=C(Cc1ccc(Cl)cc1)Nn1nc(-c2ccc(Cl)nc2)c2ccccc2c1=O [Example 5, 2-(4-chlorophenyl)-N-[4-(6-chloropyridin-3-yl)-1-oxophthalazin-2(1H)-yl]acetamide] | 85.2 | 470
Cc1ccccc1CC(=O)Nn1nc(N2CCOCC2)c2ccccc2c1=O [Example 139, 2-(2-methylphenyl)-N-[4-(morpholin-4-yl)-1-oxophthalazin-2(1H)-yl]acetamide] | -1.4 | 
O=C(CC1CC2CCC1C2)Nn1nc(NCc2ccccc2)c2ccccc2c1=O (racemic) [Example 34, (±)-N-[4-(benzylamino)-1-oxophthalazin-2(1H)-yl]-2-[(exo)-bicyclo[2.2.1]hept-2-yl]acetamide] | 161 | 142
O=C(CC1CC2CCC1C2)Nn1nc(-c2ccc(Cl)nc2)c2ccccc2c1=O (racemic) [Example 4, (±)-2-[(exo)-bicyclo[2.2.1]hept-2-yl]-N-[4-(6-chloropyridin-3-yl)-1-oxophthalazin-2(1H)-yl]acetamide] | 133 | 60.6
O=C(Cc1cc(F)cc(F)c1)Nn1nc(C2=CCOCC2)c2ccccc2c1=O [Example 7, 2-(3,5-difluorophenyl)-N-[4-(3,6-dihydro-2H-pyran-4-yl)-1-oxophthalazin-2(1H)-yl]acetamide] | 140 | 3130
Cc1ccsc1-c1nn(NC(=O)CC2CC3CCC2C3)c(=O)c2ccccc12 (racemic) [Example 16, (±)-2-[(exo)-bicyclo[2.2.1]hept-2-yl]-N-[4-(3-methylthiophen-2-yl)-1-oxophthalazin-2(1H)-yl]acetamide] | 140 | 116
O=C(Cc1ccc(Cl)cc1)Nn1nc(-c2ccnc(Cl)c2)c2ccccc2c1=O [Example 49, 2-(4-chlorophenyl)-N-[4-(2-chloropyridin-4-yl)-1-oxophthalazin-2(1H)-yl]acetamide] | 107 | 383
CN(Cc1ccccc1)c1nn(NC(=O)Cc2ccc(Cl)cc2)c(=O)c2ccccc12 [Example 36, N-{4-[benzyl(methyl)amino]-1-oxophthalazin-2(1H)-yl}-2-(4-chlorophenyl)acetamide] | 105 | 221
O=C(Cc1cccc(Oc2ccccc2)c1)Nn1nc(N2CCOCC2)c2ccccc2c1=O [Example 131, N-[4-(morpholin-4-yl)-1-oxophthalazin-2(1H)-yl]-2-(3-phenoxyphenyl)acetamide] | 17.1 | 
O=C(CC1CC2CCC1C2)Nn1nc(C(=O)N2CCOCC2)c2ccccc2c1=O (racemic) [Example 95, (±)-2-[(exo)-bicyclo[2.2.1]hept-2-yl]-N-[4-(morpholin-4-ylcarbonyl)-1-oxophthalazin-2(1H)-yl]acetamide] | 73 | 
Nc1ccc(S(=O)(=O)c2nn(NC(=O)Cc3ccc(Cl)cc3)c(=O)c3ccccc23)cc1 [Example 115, N-{4-[(4-aminophenyl)sulfonyl]-1-oxophthalazin-2(1H)-yl}-2-(4-chlorophenyl)acetamide] | 42.2 | 
O=C(Cc1cc(F)cc(F)c1)Nn1nc(Oc2ccccc2)c2ccccc2c1=O [Example 38, 2-(3,5-difluorophenyl)-N-(1-oxo-4-phenoxyphthalazin-2(1H)-yl)acetamide] | 122 | 31.8

Second part, the molecule after the results:

Emax [%] | EC50 [nM] | SMILES
92.3 | 738 | CC(C)(C)S(=O)(=O)c1nn(NC(=O)Cc2ccc(Cl)cc2)c(=O)c2ccccc12 [Example 201, N-[4-(tert-butylsulfonyl)-1-oxophthalazin-2(1H)-yl]-2-(4-chlorophenyl)acetamide]
33.9 |  | COc1cc(CC(=O)Nn2nc(N3CCOCC3)c3ccccc3c2=O)cc(OC)c1 [Example 173, 2-(3,5-dimethoxyphenyl)-N-[4-(morpholin-4-yl)-1-oxophthalazin-2(1H)-yl]acetamide]
82.7 | 5280 | O=C(Cc1cccc(F)c1)Nn1nc(N2CCOCC2)c2ccccc2c1=O [Example 149, 2-(3-fluorophenyl)-N-[4-(morpholin-4-yl)-1-oxophthalazin-2(1H)-yl]acetamide]
44.6 | 1240 | CC(C)COC(=O)NCc1nn(NC(=O)Cc2ccc(Cl)cc2)c(=O)c2ccccc12 [Example 185, 2-methylpropyl[(3-{[(4-chlorophenyl)acetyl]amino}-4-oxo-3,4-dihydrophthalazin-1-yl)methyl]carbamate]
185 | 267 | CC(C)(C)OC(=O)NC(c1ccccc1)c1nn(NC(=O)CC2CC3CCC2C3)c(=O)c2ccccc12 (racemic) [Example 179, tert-butyl(±)-[(3-{[(exo)-bicyclo[2.2.1]hept-2-ylacetyl]amino}-4-oxo-3,4-dihydrophthalazin-1-yl)(phenyl)methyl]carbamate]
74.3 | 10600 | O=C(CC1CC2CCC1C2)Nn1nc(N2CCS(=O)(=O)CC2)c2ccccc2c1=O (racemic) [Example 190, (±)-2-[(exo)-bicyclo[2.2.1]hept-2-yl]-N-[4-(1,1-dioxidothiomorpholin-4-yl)-1-oxophthalazin-2(1H)-yl]acetamide]
109 | 152 | O=C(Cc1cc(F)cc(F)c1)Nn1nc(SCc2ccccc2)c2ccccc2c1=O [Example 212, N-[4-(benzylsulfanyl)-1-oxophthalazin-2(1H)-yl]-2-(3,5-difluorophenyl)acetamide]
180 | 23.2 | O=C(CC1CC2CCC1C2)Nn1nc(Sc2ccc(Br)cc2)c2ccccc2c1=O (racemic) [Example 200, (±)-2-[(exo)-bicyclo[2.2.1]hept-2-yl]-N-{4-[(4-bromophenyl)sulfanyl]-1-oxophthalazin-2(1H)-yl}acetamide]
139 | 57.9 | CCC1CN(c2nn(NC(=O)CC3CC4CCC3C4)c(=O)c3ccccc23)CCO1 (racemic) [Example 220, (±)-2-[(exo)-bicyclo[2.2.1]hept-2-yl]-N-[4-(2-ethylmorpholin-4-yl)-1-oxophthalazin-2(1H)-yl]acetamide]
1.59 |  | O=C(Cc1ccccc1[N+](=O)[O-])Nn1nc(N2CCOCC2)c2ccccc2c1=O [Example 142, N-[4-(morpholin-4-yl)-1-oxophthalazin-2(1H)-yl]-2-(2-nitrophenyl)acetamide]
6.84 |  | O=C(Cc1ccc(-c2ccccc2)cc1)Nn1nc(N2CCOCC2)c2ccccc2c1=O [Example 158, 2-(biphenyl-4-yl)-N-[4-(morpholin-4-yl)-1-oxophthalazin-2(1H)-yl]acetamide]
